Patent US11806359B2 (priority 2020, dated 2023)

What was measured:
Ebolavirus (EBOV/Kik) = assay type: cell-based; details: based on the oleandrin content; final concentration of compositions 20 microg/mL
[1] = tested on: DENV2 (08-10381 Montserrat strain); assay: CPE-based antiviral assay, DENV2, neutral red readout (Example 14); assay type: cell-based, Dengue virus; details: 7 days post infection
Method: A CPE-based antiviral assay was performed by infecting target cells in the presence or absence of test compositions, at a range of concentrations. […] cytopathic effects and cell death. […] For CPE-based assays, cell viability was determined with a neutral red readout. Viable cells incorporate neutral red in their lysosomes. Uptake of neutral red relies on the ability of live cells to maintain a lower pH inside their lysosomes than in the cytoplasm, and this active process requires ATP. Once inside the lysosome, the neutral red dye becomes charged and is retained intracellularly. […] The amount of neutral red in solution was quantified by reading the absorbance (optical density) of each well at 490 nm […]
Cytotoxic effects were evaluated in uninfected cells by comparing viability in the presence of inhibitors to the viability of mock-treated cells. Cytotoxicity was determined by an XTT viability assay, which was conducted at the same timepoint as the readout for the corresponding infection assay.
Test compositions were dissolved in 100% methanol. […] When possible, the EC50 and CC50 of the composition was determined for each assay using GraphPad Prism software. […]
Protection of DENV2-induced cytopathic effect (CPE) with Neutral Red readout: For the DENV2 antiviral assay, the 08-10381 Montserrat strain was used. […]

SARS-CoV-2 = SARS-CoV-2 viral titer and infectivity of progeny virions in Vero cells (Example 28); assay type: cell-based; details: for reduction in virus load: oleandrin pretreatment
Method: Further proof of the efficacy of oleandrin (oleandrin-containing composition) against coronavirus, e.g. SARS-CoV-2 (COVID-19), was obtained through in vitro evaluation according to Example 28, wherein Vero cells were pretreated with oleandrin and then infected with SARS-CoV-2. Following infection of the cells, the extracellular virus and oleandrin was washed away, and the infected cells were then treated with oleandrin (FIG. 23A: 1 microg/mL in 0.1% v/v aqueous DMSO; FIG. 23C: 0.1 microg/mL in 0.01% v/v aqueous DMSO) or just aqueous DMSO as control vehicle (FIG. 23B: 0.1% v/v aqueous DMSO; FIG. 23D: 0.01% v/v aqueous DMSO). […] The results further indicate that oleandrin inhibits infectivity of progeny virus by a) about 1 log10 without continuous drug treatment; and b) about >3 log10 with continuous drug treatments (without toxicity).
A stock solution of oleandrin in methanol (10 mg oleandrin/mL) was prepared. The stock solution was used to prepare incubation media containing DMSO (0.1% or 0.01% v/v in aqueous culture medium RPMI 1640 and oleandrin (20 microg/mL, 10 microg/mL, 1.0 microg/mL, or 0.1 microg/mL). The incubation solutions are as follows.
Uninfected Vero cells (target initial cell count 1×10^6) in culture were incubated in each of the indicated incubation media in vials for 30 min at 37° C. A viral inoculate of SARS-CoV-2 was then added to each vial to achieve a target initial viral titer (about PFU/mL 1×10^4). The target MOI (multiplicity of infection) of about 0.1. The solutions were incubated for an additional 2 h at 37° C. to achieve infection of the Vero cells. The infected Vero cells were then washed with control vehicle to remove extracellular virus and oleandrin. New aliquots of each incubation medium were added to each respective vial of infected Vero cells. Those receiving oleandrin in the second aliquot were denoted as “+ treatment Post-infection”, and those not receiving oleandrin in the second aliquot were denoted as “− treatment Post-infection” (FIGS. 23A-23D). The viral titer for each vial was determined at about 24 h and about 48 h after infection.
The data acquired included quantity of virus produced, infectivity of progeny virus, and relative safety (nontoxicity) of oleandrin in infected and uninfected cells.

CO[C@H]1C[C@H](O[C@H]2CC[C@@]3(C)[C@H](CC[C@@H]4[C@@H]3CC[C@]3(C)[C@@H](C5=CC(=O)OC5)[C@@H](OC(C)=O)C[C@]43O)C2)O[C@@H](C)[C@@H]1O [oleandrin]
efficacy against Ebolavirus (Ebolavirus (EBOV/Kik)): efficacious | efficacy against Dengue virus [1]: demonstrates efficacy | reduction of initial viral infection (SARS-CoV-2; just 30 min preincubation of Vero cells): only slightly effective | reduction in virus load (SARS-CoV-2; 24-h time): 1368 fold | reduction in virus load (SARS-CoV-2; 48-h time point): 369 fold | inhibition of infectivity of progeny virus (SARS-CoV-2; with continuous drug treatments (without toxicity)): > 3 log10 | inhibition of infectivity of progeny virus (SARS-CoV-2; without continuous drug treatment): about 1 log10 | cellular toxicity (VERO CCL-81 cells): no cellular toxicity was observed
